Test results from patent US20240352021A1 (DANA-FARBER CANCER INSTITUTE, INC., priority 2021, published 2024).
Where two headings read alike, the source gives them in different places.

Experiments:
[1] = target: EGFR mutant L858R Ba/F3 cells (Homo sapiens, UniProt P00533, L858R, cells depend on it); experiment: Ba/F3 cell proliferation (Cell Titer Glo), EGFR L858R; type: cell-based, murine; details: 72 hours
Excerpt: (§1) The EGFR mutant L858R Ba/F3 cells have been previously described (Zhou, W., et al. Nature 462, 2009, 1070-1074). The EGFR C797S and C775S mutations were introduced via site directed mutagenesis using the Quick Change Site-Directed Mutagenesis kit into a vector containing EGFR L858R mutation (Stratagene; La Jolla, CA) according to the manufacturer's instructions. All constructs were confirmed by DNA sequencing. The constructs were then shuttled into the retroviral vector JP1540 by either using the Cre-recombination system (Agilent Technologies, Santa Clara, CA) or the In-fusion HD Cloning kit (Takara Bio USA, Inc.; Mountain view, CA). Ba/F3 cells were then infected with retrovirus per standard protocols, as described previously (Zhou, et al, Nature 2009). Stable clones were obtained by selection in puromycin (2 μg/ml). All BaF/3 mutant cells were maintained in RPMI 1640 (Cellgro; Mediatech Inc., Herndon, CA) supplemented with 10% FBS, 100 units/mL penicillin, 100 units/mL streptomycin.
(§2) Growth and inhibition of growth was assessed by the Cell Titer Glo assay (Promega, Madison, WI) and was performed according to the manufacturer's instructions. The Cell Titer Glo assay is a luminescence-based method used to determine the number of viable cells based on quantitation of the ATP present, which is directly proportional to the amount of metabolically active cells present. Ba/F3 cells of different EGFR genotypes were exposed to compounds for 72 hours and the number of cells used per experiment was determined empirically as has been previously established (Zhou, et al., Nature 2009). All experimental points were set up in triplicates in 384-well plates. […] The curves were fitted using a non-linear regression model with a sigmoidal dose response.
(§3) Ba/F3 cells assay data are provided below in Table 5 and Table 6. For inhibitory activity against EGFR mutants, the following designations are used: <0.1 μM=A, 0.1 μM˜0.5 μM=B, 0.5 μM˜2.5 μM=C, ≥2.5 μM=D

[2] = target: EGFR L858R/C797S Ba/F3 cells (Homo sapiens, UniProt P00533, C797S/L858R, cells depend on it); experiment: Ba/F3 cell proliferation (Cell Titer Glo), EGFR L858R/C797S; type: cell-based, murine; details: 72 hours
Chain of EGFR L858R/C797S Ba/F3 cells (P00533 whole entry C797S/L858R): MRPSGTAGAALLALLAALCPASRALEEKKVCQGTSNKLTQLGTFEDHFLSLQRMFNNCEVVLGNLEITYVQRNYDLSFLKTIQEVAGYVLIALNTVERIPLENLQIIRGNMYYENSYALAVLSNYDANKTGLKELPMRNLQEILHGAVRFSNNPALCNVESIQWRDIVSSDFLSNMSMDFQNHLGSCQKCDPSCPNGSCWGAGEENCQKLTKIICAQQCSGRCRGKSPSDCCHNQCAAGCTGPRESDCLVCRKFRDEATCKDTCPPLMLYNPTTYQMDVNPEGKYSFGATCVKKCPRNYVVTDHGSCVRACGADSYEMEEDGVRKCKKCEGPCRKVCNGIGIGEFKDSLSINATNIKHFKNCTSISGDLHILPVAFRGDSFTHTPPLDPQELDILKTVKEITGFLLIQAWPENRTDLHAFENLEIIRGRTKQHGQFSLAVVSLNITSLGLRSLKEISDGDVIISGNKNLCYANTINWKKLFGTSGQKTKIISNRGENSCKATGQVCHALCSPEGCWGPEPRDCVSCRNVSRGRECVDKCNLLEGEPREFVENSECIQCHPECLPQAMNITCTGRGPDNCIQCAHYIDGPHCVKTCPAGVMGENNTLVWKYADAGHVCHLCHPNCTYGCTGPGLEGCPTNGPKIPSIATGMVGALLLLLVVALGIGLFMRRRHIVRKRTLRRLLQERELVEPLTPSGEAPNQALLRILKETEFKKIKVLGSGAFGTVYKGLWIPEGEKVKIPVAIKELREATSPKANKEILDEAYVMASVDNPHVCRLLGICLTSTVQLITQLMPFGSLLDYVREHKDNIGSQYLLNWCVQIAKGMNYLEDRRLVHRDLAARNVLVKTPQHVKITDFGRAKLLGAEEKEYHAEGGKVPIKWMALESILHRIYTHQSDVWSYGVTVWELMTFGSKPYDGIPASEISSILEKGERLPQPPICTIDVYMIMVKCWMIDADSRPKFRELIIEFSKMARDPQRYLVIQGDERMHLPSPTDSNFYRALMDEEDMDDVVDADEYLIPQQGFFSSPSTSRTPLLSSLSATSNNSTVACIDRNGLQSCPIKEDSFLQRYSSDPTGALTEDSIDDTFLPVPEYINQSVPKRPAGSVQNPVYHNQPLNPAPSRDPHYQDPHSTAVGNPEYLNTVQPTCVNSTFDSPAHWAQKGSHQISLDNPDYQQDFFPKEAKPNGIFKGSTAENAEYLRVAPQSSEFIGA
Excerpt: as §1, §2, §3

Chain of EGFR mutant L858R Ba/F3 cells (P00533 whole entry L858R, the tested form may be a part): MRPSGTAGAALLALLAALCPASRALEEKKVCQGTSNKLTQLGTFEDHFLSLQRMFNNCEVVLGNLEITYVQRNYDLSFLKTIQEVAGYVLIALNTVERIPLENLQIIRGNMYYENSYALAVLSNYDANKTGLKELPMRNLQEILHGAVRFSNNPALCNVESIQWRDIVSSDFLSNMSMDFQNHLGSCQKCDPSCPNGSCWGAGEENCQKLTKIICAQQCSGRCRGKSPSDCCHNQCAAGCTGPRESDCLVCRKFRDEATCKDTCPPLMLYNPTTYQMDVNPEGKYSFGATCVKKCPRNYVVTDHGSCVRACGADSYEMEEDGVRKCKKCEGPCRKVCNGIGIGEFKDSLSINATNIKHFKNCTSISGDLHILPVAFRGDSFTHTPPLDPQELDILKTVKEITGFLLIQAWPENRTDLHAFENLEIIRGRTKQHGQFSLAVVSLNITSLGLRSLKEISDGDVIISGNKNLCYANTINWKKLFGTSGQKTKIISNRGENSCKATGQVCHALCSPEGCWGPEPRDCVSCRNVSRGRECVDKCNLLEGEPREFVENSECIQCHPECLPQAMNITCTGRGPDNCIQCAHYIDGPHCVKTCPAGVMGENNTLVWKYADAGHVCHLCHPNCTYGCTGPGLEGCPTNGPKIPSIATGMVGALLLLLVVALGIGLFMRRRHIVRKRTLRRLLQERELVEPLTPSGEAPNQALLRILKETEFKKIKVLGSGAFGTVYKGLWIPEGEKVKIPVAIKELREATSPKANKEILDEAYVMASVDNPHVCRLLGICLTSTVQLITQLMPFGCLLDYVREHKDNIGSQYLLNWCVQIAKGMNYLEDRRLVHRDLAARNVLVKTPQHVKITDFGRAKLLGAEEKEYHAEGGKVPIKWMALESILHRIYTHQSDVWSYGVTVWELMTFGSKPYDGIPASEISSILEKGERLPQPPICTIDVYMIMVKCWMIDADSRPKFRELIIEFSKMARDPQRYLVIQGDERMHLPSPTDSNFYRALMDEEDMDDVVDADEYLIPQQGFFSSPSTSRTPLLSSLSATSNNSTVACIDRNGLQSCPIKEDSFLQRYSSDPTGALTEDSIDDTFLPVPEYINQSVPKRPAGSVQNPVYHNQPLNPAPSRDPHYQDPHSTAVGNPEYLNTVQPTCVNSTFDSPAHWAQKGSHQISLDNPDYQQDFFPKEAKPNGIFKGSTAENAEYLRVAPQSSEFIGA

SMILES | GI50 ([1]; Table 6, read-out: L858R BaF3) [nM] | GI50 ([2]; Table 6) [nM] | GI50 ([1]; Table 5, read-out: L858R BaF3) [nM] | GI50 ([2]; Table 5) [nM]
C=CC(=O)N1CCC(N2Cc3cnc(Nc4ccc(CN5CCN(C)CC5)cn4)nc3N(C)C2=O)c2ccccc21 (centres unmarked) [Compound 070] | < 100 | < 100 | – | –
C=CC(=O)N1CC2(CC(N3Cc4cnc(Nc5ccc(N6CCN(C)CC6)cc5)nc4N(C)C3=O)C2)C1 [Compound 053] | ≥ 2500 | ≥ 2500 | – | –
C=CC(=O)N1CC2CC1CC2N1Cc2cnc(Nc3ccc(N4CCN(C)CC4)cc3)nc2N(C)C1=O (stereo not drawn) [Compound 059, 1-methyl-7-[4-(4-methylpiperazin-1-yl)anilino]-S-(2-prop-2-enoyl-2-azabicyclo[2.2.1]heptan-5-yl)-4H-pyrimido[4,5-d]pyrimidin-2-one] | ≥ 2500 | ≥ 2500 | – | –
C=CC(=O)N1CCC(N2Cc3cnc(Nc4cnn(CCN(C)C)c4)nc3N(C)C2=O)c2ccccc21 (centres unmarked) [Compound 062] | < 100 | < 100 | – | –
C=CC(=O)N1CCC(N2Cc3cnc(Nc4ccc(N5CCN(C)CC5)nc4)nc3N(C)C2=O)c2ccccc21 (centres unmarked) [Compound 056] | < 100 | < 100 | – | –
C=CC(=O)N1CCC(N2Cc3nnc(Nc4ccc(N5CCN(C)CC5)cn4)cc3N(C)C2=O)c2ccccc21 (centres unmarked) [Compound 105] | ≥ 2500 | ≥ 2500 | – | –
CN1C(=O)N([C@H]2CCN(C#N)c3ccccc32)Cc2cnc(Nc3cnn(CCO)c3)nc21 [Compound 103] | ≥ 2500 | ≥ 2500 | – | –
C=C(C)C(=O)N1CC[C@H](N2Cc3cnc(Nc4ccc(N5CCN(C)CC5)cc4)nc3N(C)C2=O)c2ccccc21 [Compound 090] | 500 to 2500 | 500 to 2500 | – | –
C=CC(=O)Nc1c(F)cccc1CN1Cc2cnc(Nc3ccc(N4CCN(C)CC4)cc3)nc2N(C)C1=O [Compound 019] | – | – | 100 to 500 | 500 to 2500
C=CC(=O)Nc1ccccc1CN1Cc2cnc(Nc3ccc(N4CCN(C)CC4)cc3)nc2N(C)C1=O [Compound 001, N-(2-((1-methyl-7-((4-(4-methylpiperazin-1-yl)phenyl)amino)-2-oxo-1,4-dihydropyrimido[4,5-d]pyrimidin-S(2H)-yl)methyl)phenyl)acrylamide] | – | – | 100 to 500 | 100 to 500
CN1CCN(c2ccc(Nc3ncc4c(n3)N(C)C(=O)N([C@H]3CCN(C(=O)CC#N)c5ccccc53)C4)cc2)CC1 [Compound 096] | ≥ 2500 | ≥ 2500 | – | –
C=CC(=O)N1CCC(N2Cc3cnc(Nc4ccc(N5CCN(C)CC5)cc4Cl)nc3N(C)C2=O)c2ccccc21 (centres unmarked) [Compound 077] | < 100 | < 100 | – | –
C=CC(=O)N1CCC(N2Cc3cnc(Nc4ccc(N5CCN(C)CC5)cc4)nc3N(C)C2=O)CC1 [Compound 054] | ≥ 2500 | ≥ 2500 | – | –
C=CC(=O)N1CCC(N2Cc3cnc(Nc4ccc(C5CCN(C)CC5)cc4)nc3N(C)C2=O)c2ccccc21 (centres unmarked) [Compound 066] | < 100 | < 100 | – | –
C=C(F)C(=O)N1CC[C@H](N2Cc3cnc(Nc4cnn(CCO)c4)nc3N(C)C2=O)c2ccccc21 [Compound 093] | < 100 | < 100 | – | –
C=CC(=O)N1CCC(N2Cc3cnc(Nc4ccc(N5CCN(C)CC5)c(-c5cnn(C)c5)c4)nc3N(C)C2=O)c2ccccc21 (stereo not drawn) [Compound 052, 1-methyl-7-[4-(4-methylpiperazin-1-yl)-S-(1-methylpyrazol-4-yl)anilino]-S-(1-prop-2-enoyl-3,4-dihydro-2H-quinolin-4-yl)-4H-pyrimido[4,5-d]pyrimidin-2-one] | < 100 | 100 to 500 | – | –
C=C(F)C(=O)N1CC[C@H](N2Cc3cnc(Nc4ccc5c(c4)CCN(C)C5)nc3N(c3cnn(C)c3)C2=O)c2ccccc21 [Compound 109] | < 100 | < 100 | – | –
C=CC(=O)N1CCC(C)(N2Cc3cnc(Nc4cnn(CCO)c4)nc3N(C)C2=O)c2ccccc21 (stereo not drawn) [Compound 112, 7-[[1-(2-hydroxyethyl)pyrazol-4-yl]amino]-1-methyl-S-(4-methyl-1-prop-2-enoyl-2,3-dihydroquinolin-4-yl)-4H-pyrimido[4,5-d]pyrimidin-2-one] | ≥ 2500 | ≥ 2500 | – | –
C=CC(=O)N1CCC(N2Cc3cnc(Nc4ccc(OCCN5CCCC5)cc4)nc3N(C)C2=O)c2ccccc21 (centres unmarked) [Compound 068] | < 100 | < 100 | – | –

SMILES | GI50 ([1]; Table 6, read-out: L858R BaF3) [nM] | GI50 ([2]; Table 6) [nM] | GI50 ([1]; Table 5, read-out: L858R BaF3) [nM] | GI50 ([2]; Table 5) [nM]
C=CC(=O)N1CCC(N2Cc3cnc(Nc4ccc(N(C)CCN(C)C)c(C(F)(F)F)c4)nc3N(C)C2=O)c2ccccc21 (centres unmarked) [Compound 076] | < 100 | < 100 | – | –
C=CC(=O)Nc1cccc(CN2Cc3cnc(Nc4ccc(N5CCN(C)CC5)cc4)nc3N(C)C2=O)c1 [Compound 036] | – | – | 500 to 2500 | ≥ 2500
C=C(F)C(=O)N1CC[C@H](N2Cc3cnc(Nc4cnn(CCO)c4)nc3N(CC(F)F)C2=O)c2ccccc21 [Compound 110, 1-(2,2-difluoroethyl)-S-[(4S)-1-(2-fluoroprop-2-enoyl)-3,4-dihydro-2H-quinolin-4-yl]-7-[[1-(2-hydroxyethyl)pyrazol-4-yl]amino]-4H-pyrimido[4,5-d]pyrimidin-2-one] | < 100 | < 100 | – | –
C=CC(=O)N1CCC(N2Cc3cnc(Nc4ccc(N5CCN(C)CC5)cn4)cc3N(C)C2=O)c2ccccc21 (stereo not drawn) [Compound 086, 1-methyl-7-[[5-(4-methylpiperazin-1-yl)-2-pyridyl]amino]-S-(1-prop-2-enoyl-3,4-dihydro-2H-quinolin-4-yl)-4Hpyrido[4,3-d]pyrimidin-2-one] | < 100 | < 100 | – | –
C=CC(=O)N1CCC(N2Cc3cnc(Nc4ccc(N5CCN(C)CC5)cn4)nc3N(C)C2=O)c2ccccc21 (centres unmarked) [Compound 069] | < 100 | < 100 | – | –
C=CC(=O)N1CC(N2Cc3cnc(Nc4ccc(N5CCN(C)CC5)cc4)nc3N(C)C2=O)c2ccccc21 (stereo not drawn) [Compound 047, 1-methyl-7-[4-(4-methylpiperazin-1-yl)anilino]-S-(1-prop-2-enoylindolin-3-yl)-4H-pyrimido[4,5-d]pyrimidin-2-one] | 100 to 500 | 100 to 500 | – | –
C=CC(=O)N1CCC(N2Cc3cnc(Nc4ccc(N5CCN(C)CC5)cc4)nc3N(C)C2=O)c2cccc(OC)c21 (centres unmarked) [Compound 100, 3-(8-methoxy-1-prop-2-enoyl-3,4-dihydro-2H-quinolin-4-yl)-1-methyl-7-[4-(4-methylpiperazin-1-yl)anilino]-4H-pyrimido[4,5-d]pyrimidin-2-one] | < 100 | < 100 | – | –
C=CC(=O)Nc1cccc2[nH]cc(CN3Cc4cnc(Nc5ccc(N6CCN(C)CC6)cc5)nc4N(C)C3=O)c12 [Compound 050] | ≥ 2500 | ≥ 2500 | – | –
C=CC(=O)N1CCC(N2Cc3cnc(Nc4ccc(CN5CCN(C)CC5)c(Cl)c4)nc3N(C)C2=O)c2ccccc21 (centres unmarked) [Compound 088] | < 100 | < 100 | – | –
C=CC(=O)N1CCC(N2Cc3cnc(Nc4ccc(N5CCN(C)CC5)c(Cl)c4)nc3N(C)C2=O)c2ccccc21 (centres unmarked) [Compound 079] | < 100 | < 100 | – | –
C=CC(=O)N1CCC(N2Cc3cnc(Nc4ccc(N5CCN(C)CC5)c(F)c4)nc3N(C)C2=O)c2ccccc21 (centres unmarked) [Compound 055] | < 100 | < 100 | – | –
C=C(F)C(=O)N1CC[C@H](N2Cc3cnc(Nc4cnn(CCO)c4)nc3N(c3ccccn3)C2=O)c2ccccc21 [Compound 111] | 100 to 500 | 500 to 2500 | – | –
C=CC(=O)N1CCC(N2Cc3cnc(Nc4cccc(N5CCN(C)CC5)c4)nc3N(C)C2=O)c2ccccc21 (centres unmarked) [Compound 073] | < 100 | < 100 | – | –
C=CC(=O)N1CCC(N2Cc3cnc(Nc4ccc(N(C)C)cc4)nc3N(C)C2=O)c2ccccc21 (centres unmarked) [Compound 074] | < 100 | < 100 | – | –
C=CC(=O)N1Cc2ccccc2C(N2Cc3cnc(Nc4ccc(N5CCN(C)CC5)cc4)nc3N(C)C2=O)C1 (centres unmarked) [Compound 060, 3-(2-acryloyl-1,2,3,4-tetrahydroisoquinolin-4-yl)-1-methyl-7-((4-(4-methylpiperazin-1-yl)phenyl)amino)-3,4-dihydropyrimido[4,5-d]pyrimidin-2(1H)-one] | ≥ 2500 | ≥ 2500 | – | –
C=CC(=O)N1CCC(N2Cc3cnc(Nc4ccc(N5CCN(C)CC5)cc4)nc3N(C3CCCC3)C2=O)c2ccccc21 (stereo not drawn) [Compound 057, 1-cyclopentyl-7-[4-(4-methylpiperazin-1-yl)anilino]-S-(1-prop-2-enoyl-3,4-dihydro-2H-quinolin-4-yl)-4H-pyrimido[4,5-d]pyrimidin-2-one] | < 100 | < 100 | – | –
CN1CCN(c2ccc(Nc3ncc4c(n3)N(C)C(=O)N([C@H]3CCN(C(=O)/C=C/CF)c5ccccc53)C4)cc2)CC1 [Compound 095] | < 100 | < 100 | – | –
C=CC(=O)N1CCC(N2Cc3cnc(Nc4ccc(S(=O)(=O)NCCO)cc4)nc3N(C)C2=O)c2ccccc21 (centres unmarked) [Compound 084] | ≥ 2500 | ≥ 2500 | – | –
